Measurements reported in the supplement of paper PMC10307832.

Assays:
Test in all cases: relative viability (nuclei count vs DMSO), 5 days (fraction); higher = more cells survive
[1] = compound: OCc1c[nH]c2ccccc12 [Indole-3-carbinol] + CS(=O)(=O)N1CCN(Cc2cc3nc(-c4cccc5[nH]ncc45)nc(N4CCOCC4)c3s2)CC1 [Pictilisib] (partner 1 µM)
Summary of the method: (§1)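 The day after seeding in 1536-well plates, lung cancer cell lines were treated by pin tool with a single drug, or with a fixed anchor-drug dose together with five library-drug doses (not always all listed) in √10 steps. After 5 days, a combined fix-and-stain solution (final 0.05% Triton X-100, 1% formaldehyde, 1 ug/ml Hoechst) was added. Nuclei counted on 4× images gave relative viability as treated counts over vehicle counts, reported as the median of duplicate plates.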

[2] = compound: OCc1c[nH]c2ccccc12 [Indole-3-carbinol] + CC(=O)Nc1cccc(-n2c(=O)n(C3CC3)c(=O)c3c(Nc4ccc(I)cc4F)n(C)c(=O)c(C)c32)c1 [Trametinib] (partner 0.02 µM)
Summary of the method: as §1

[3] = compound: OCc1c[nH]c2ccccc12 [Indole-3-carbinol] + CC(=O)c1c(C)c2cnc(Nc3ccc(N4CCNCC4)cn3)nc2n(C2CCCC2)c1=O [Palbociclib] (partner 0.5 µM)
Summary of the method: as §1

[4] = compound: OCc1c[nH]c2ccccc12 [Indole-3-carbinol] + CS(=O)(=O)CCNCc1ccc(-c2ccc3ncnc(Nc4ccc(OCc5cccc(F)c5)c(Cl)c4)c3c2)o1 [Lapatinib] (partner 2 µM)
Summary of the method: as §1

[5] = compound: OCc1c[nH]c2ccccc12 [Indole-3-carbinol] + CCNC(=O)c1noc(-c2cc(C(C)C)c(O)cc2O)c1-c1ccc(CN2CCOCC2)cc1 [Luminespib] (partner 0.01 µM)
Summary of the method: as §1

| Cell Line | relative viability ([1]; first compound 0.253 µM) | relative viability ([1]; first compound 0.8 µM) | relative viability ([1]; first compound 2.53 µM) | relative viability ([1]; first compound 8 µM) | relative viability ([2]; first compound 0.253 µM) | relative viability ([2]; first compound 0.8 µM) | relative viability ([2]; first compound 2.53 µM) | relative viability ([2]; first compound 8 µM) | relative viability ([3]; first compound 0.253 µM) | relative viability ([3]; first compound 0.8 µM) | relative viability ([3]; first compound 2.53 µM) | relative viability ([3]; first compound 8 µM) | relative viability ([4]; first compound 0.253 µM) | relative viability ([4]; first compound 0.8 µM) | relative viability ([4]; first compound 2.53 µM) | relative viability ([4]; first compound 8 µM) | relative viability ([5]; first compound 0.253 µM) | relative viability ([5]; first compound 0.8 µM) | relative viability ([5]; first compound 2.53 µM) | relative viability ([5]; first compound 8 µM) |
| --- | --- | --- | --- | --- | --- | --- | --- | --- | --- | --- | --- | --- | --- | --- | --- | --- | --- | --- | --- | --- |
| HCC-366 | 0.175 | 0.111 | 0.18 | 0.18 | 0.358 | 0.322 | 0.422 | 0.304 | 0.419 | 0.384 | 0.455 | 0.356 | 1.07 | 0.867 | 0.985 | 0.987 |  |  |  |  |
| HCC-827 | 0.926 | 1.04 | 0.841 | 1.07 | 0.516 | 0.542 | 0.505 | 0.533 | 0.495 | 0.292 | 0.479 | 0.471 | 0.202 | 0.18 | 0.227 | 0.191 | 0.579 | 0.622 | 0.67 | 0.644 |
| HOP-62 | 0.771 | 0.806 | 1.01 | 0.731 | 0.348 | 0.373 | 0.358 | 0.32 | 0.444 | 0.457 | 0.451 | 0.426 | 0.957 | 0.874 | 1.11 | 0.966 | 0.911 | 0.927 | 0.937 | 0.831 |
| IA-LM | 0.348 | 0.291 | 0.362 | 0.237 |  |  |  |  |  |  |  |  | 0.842 | 0.902 | 0.837 | 0.783 |  |  |  |  |
| LC-2-ad | 0.439 | 0.502 | 0.466 | 0.464 | 0.893 | 0.879 | 0.897 | 0.869 | 0.533 | 0.534 | 0.513 | 0.455 | 0.977 | 0.974 | 0.893 | 0.938 | 1.13 | 1.15 | 1.26 | 0.953 |
| LCLC-97TM1 | 0.139 | 0.224 | 0.177 | 0.223 | 0.215 | 0.215 | 0.178 | 0.23 | 0.237 | 0.266 | 0.225 | 0.236 | 0.599 | 0.935 | 0.911 | 0.582 | 0.823 | 0.935 | 0.859 | 0.865 |
| LCLC-103H | 0.546 | 0.537 | 0.702 | 0.476 | 0.701 | 0.614 | 0.651 | 0.571 | 0.492 | 0.48 | 0.451 | 0.405 |  |  |  |  | 0.873 | 0.939 | 0.901 | 0.811 |
| LK-2 | 0.475 | 0.46 | 0.977 | 0.628 | 0.674 | 0.538 | 0.812 | 0.732 | 0.674 | 0.489 | 1.05 | 0.703 | 0.883 | 0.864 | 1.13 | 1.04 | 0.214 | 0.203 | 0.229 | 0.181 |
| LOU-NH91 | 0.488 | 0.472 | 0.539 | 0.57 | 0.81 | 0.747 | 0.788 | 0.802 | 0.492 | 0.547 | 0.535 | 0.497 | 0.762 | 0.706 | 0.748 | 0.771 | 0.369 | 0.342 | 0.306 | 0.356 |
| LU99A | 0.318 | 0.367 | 0.302 | 0.35 | 0.5 | 0.517 | 0.521 | 0.545 | 0.397 | 0.423 | 0.385 | 0.381 | 0.893 | 0.968 | 0.973 | 0.89 | 0.237 | 0.199 | 0.209 | 0.207 |
| LXF-289 | 0.837 | 0.814 | 0.807 | 0.747 | 0.678 | 0.693 | 0.651 | 0.656 | 0.58 | 0.611 | 0.609 | 0.56 | 0.919 | 0.946 | 0.881 | 0.841 | 0.787 | 0.754 | 0.647 | 0.575 |
| NCI-H23 | 0.434 | 0.485 | 0.581 | 0.451 | 0.315 | 0.319 | 0.43 | 0.414 | 0.435 | 0.463 | 0.546 | 0.419 | 1.09 | 1.1 | 1.06 | 0.9 | 0.219 |  | 0.233 | 0.223 |
| NCI-H322M | 0.45 | 0.487 | 0.486 | 0.502 | 0.517 | 0.411 | 0.496 | 0.451 | 0.456 | 0.481 | 0.506 | 0.476 | 0.601 | 0.537 | 0.575 | 0.549 | 0.828 | 0.861 | 0.895 | 0.783 |
| NCI-H358 | 0.408 | 0.354 | 0.344 | 0.32 | 0.119 | 0.122 | 0.139 | 0.121 | 0.145 | 0.125 | 0.136 | 0.12 | 0.519 | 0.422 | 0.42 | 0.423 | 0.366 | 0.447 | 0.458 | 0.233 |
| NCI-H441 | 0.479 | 0.491 | 0.539 | 0.508 | 0.59 | 0.547 | 0.469 | 0.475 | 0.202 | 0.267 | 0.249 | 0.185 |  |  |  |  | 0.324 | 0.334 | 0.456 | 0.301 |
| NCI-H522 |  |  |  |  | 0.794 | 0.798 | 0.839 | 0.749 | 0.87 | 1.02 | 1.31 | 1.15 |  |  |  |  | 1.17 | 1.05 | 1.1 | 0.949 |
| NCI-H596 | 0.368 | 0.416 | 0.364 | 0.411 | 0.779 | 0.829 | 0.809 | 0.762 |  |  |  |  | 1.05 | 0.779 | 0.936 | 0.985 | 0.734 | 1.01 | 0.913 | 1 |
| SW 900 |  |  |  |  | 0.866 | 0.867 | 0.82 | 0.992 | 0.557 | 0.501 | 0.589 | 0.527 |  |  |  |  | 0.186 | 0.155 | 0.169 | 0.166 |
